Values after ≈ are worked out from the molar mass of the structure shown.
Assay: Solubility in propylene glycol methyl ether acetate
Type: physicochemical
Details: organic solvent or mixture, thermodynamic from solid, at 25° C., read-out: solubility in propylene glycol methyl ether acetate (compound (1))
Description: <Measurement of Solubility of Near Infrared Absorbing Pigment and Compound (1)>
Under atmospheric pressure, 99 to 101 g of a sample (precisely weighed value is defined as X g) was added to 1 L of propylene glycol methyl ether acetate at 25° C., and the mixture was stirred for 30 minutes. Next, the mixture was allowed to stand for 5 minutes and filtered, and the […] was dried under reduced pressure at 80° C. for 2 hours and weighed precisely (precisely weighed value is defined as Y g). Solubility of the sample dissolved in propylene glycol methyl ether acetate was calculated from the following expression. Solubility (g/L)=X−Y <Method for Quantifying Amine Compound in Composition>

Row | solubility at 30 min | SMILES
1 | ≥ 500 µg/mL | O=c1c2ccccc2[nH]c2cc3c(=O)c4ccccc4n(CCCCS(=O)(=O)O)c3cc12 [Example P3]
2 | 100 to 500 µg/mL (≈ 105 to 524 µM) | O=C1C(=C2C(O)=CC(N(c3ccc(S(=O)(=O)O)cc3)c3ccc(S(=O)(=O)O)cc3)C=C2O)C(O)=C1c1c(O)cc(N(c2ccc(S(=O)(=O)O)cc2)c2ccc(S(=O)(=O)O)cc2)cc1O (centres unmarked) [Example P2]

Reference: patent publication US12152139B2, “Composition, film, optical filter, laminate, solid-state imaging element, image display device, and infrared sensor” (FUJIFILM Corporation, priority 2018, dated 2024)
